Legend:
[1] = Mouse liver microsomes stability with NADPH; conditions: for half-life at 2 μM / microsomal CLint at 2 μM: male, mouse, microsomes; for Remaining Percentage (%) after 60 min, Mouse: mouse liver microsomes, with NADPH, 2 μM
Description: (§1) The objective of this study was to estimate in vitro metabolic stability of exemplary compounds in pooled human, male rat and male mouse liver microsomes. The concentrations of exemplary compounds in reaction systems were evaluated by LC-MS/MS for estimating the stability in pooled human, male rat and male mouse liver microsomes. The in vitro intrinsic clearances of test compounds were determined as well.
(§2) A master solution in the “Incubation Plate” containing phosphate buffer, ultra-pure H2O, MgCl2 solution and liver microsomes was made according to Table 3. The mixture was pre-warmed at 37° C. water bath for 5 minutes.
(§3) 40 μL of 10 mM NADPH solution was added to each well. The final concentration of NADPH was 1 mM. The negative control samples were prepared by replacing NADPH with 40 μL of ultra-pure H2O. Samples were prepared in duplicate. Negative controls were prepared in singlet.
(§4) The reaction was started with the addition of 4 μL of 200 μM exemplary test compounds or control compounds to each master solution to get the final concentration of 2 μM. This study was performed in duplicate.
(§5) Aliquots of 50 μL were taken from the reaction solution at 0, 15, 30, 45 and 60 minutes. The reaction solutions were stopped by the addition of 4 volumes of cold methanol with IS (100 nM alprazolam, 200 nM imipramine, 200 nM labetalol and 2 μM ketoprofen). Samples were centrifuged at 3,220 g for 40 minutes. Aliquot of 90 μL of the supernatant was mixed with 90 μL of ultra-pure H2O and then was used for LC-MS/MS analysis.
(§6) LC/MS analysis was performed for all samples from this study using a Shimadzu liquid chromatograph separation system equipped with degasser DGU-20A5R; solvent delivery unit LC-30AD; system controller SIL-30AC; column oven CTO-30A; CTC Analytics HTC PAL System. Mass spectrometric analysis was performed using an Triple Quad™ 5500 instrument.
(§7) All calculations were carried out using Microsoft Excel. Peak areas were determined from extracted ion chromatograms. The slope value, k, was determined by linear regression of the natural logarithm of the remaining percentage of the parent drug vs. incubation time curve.
(§8) Conversion of the in vitro t1/2 (min) into the in vitro intrinsic clearance (in vitro CLint, in μL/min/mg proteins) was done using the following equation (mean of duplicate determinations): […]

[2] = Human liver microsomes stability with NADPH; conditions: for Remaining Percentage (%) after 60 min, Human: human liver microsomes, with NADPH, 2 μM; for half-life at 2 μM / microsomal CLint at 2 μM: human, microsomes
Description: as §1, §2, §3, §4, §5, §6, §7, §8

[3] = Rat liver microsomes stability with NADPH; conditions: for half-life at 2 μM / microsomal CLint at 2 μM: male, rat, microsomes; for Remaining Percentage (%) after 60 min, Rat: rat liver microsomes, with NADPH, 2 μM
Description: as §1, §2, §3, §4, §5, §6, §7, §8

[4] = In vivo pharmacokinetics in male SD rats (IV and PO); conditions: rat; for AUC(0-inf) / C0 / clearance / AUC(0-t) / half-life / MRT inf / Vd / Cmax / Tmax / bioavailability: male, SD, plasma; for AUC(0-t): read-out: AUC0-tlast; for half-life: read-out: Apparent t1/2 (converted); for MRT inf: read-out: MRT0-inf; for Vd: read-out: Vss; for bioavailability: read-out: F (bioavailability)
Description: (§9) Example 26: In Vivo Assessment of the Pharmacokinetics in Mice and Rats Formulations were administered intravenously (i.v.) via the tail vein or orally (p.o.) by gavage with disposable feeding needles. i. Analysis software: Phoenix® WinNonlin® 8.2 (Pharsight, Certara, Mountainview, Calif.) ii. Analysis methods: non-compartmental analysis, linear up/log down trapezoidal rule iii. PK parameters: C0, t1/2, AUC0-tlast. AUC0-∞, CL, Vss, MRT, tmax(po), Cmax(po), F, as appropriate • C0 concentration extrapolated to time zero following an i.v. dose • tmax time at which maximum concentration is observed • Cmax maximum observed concentration • Apparent t1/2 apparent terminal half-life • AUC0-tlast area under the concentration vs time curve from time 0 to the time of the last measurable concentration • AUC0-inf area under the concentration vs time curve from time 0 to infinity • CL systemic clearance • MRT0-inf mean residence time from time zero to infinity • Vss steady-state volume of distribution • F bioavailability=(Dose^iv*AUC^po)/(Dose^po*AUC^iv)*100

[5] = In vivo pharmacokinetics in male C57BL/6 mice (IV and PO); conditions: mouse; for AUC(0-inf) / C0 / clearance / AUC(0-t) / half-life / MRT inf / Vd / Cmax / Tmax / bioavailability: male, C57BL/6, plasma; for AUC(0-t): read-out: AUC0-tlast; for half-life: read-out: Apparent t1/2 (converted); for MRT inf: read-out: MRT0-inf; for Vd: read-out: Vss; for bioavailability: read-out: F (bioavailability)
Description: Example 26: In Vivo Assessment of the Pharmacokinetics in Mice and Rats […]
Male C57BL/6 mice (25-30 g) from Charles River Labs were acclimatized for a minimum of 5 days prior to dosing. Body weights will be recorded on the day of dosing.
Animals dosed p.o. were deprived of food overnight and fed ˜2 h following dosing.
Formulations were administered intravenously (i.v.) via the tail vein or orally (p.o.) by gavage with disposable feeding needles.
Serial blood samples were collected via tail snip. Terminal blood samples will be collected under isoflurane anesthesia by cardiac puncture.
All blood samples were transferred into K2EDTA tubes on wet ice and centrifuged within 5 min (3200×g for 5 min at 4° C.) to obtain plasma. Plasma will be stored at −80° C. until analysis.
as §9, with “AB Sciex QTRAP 4000 or 6500 MS/MS system equipped with an LC system with a binary pump, a solvent degasser, a thermostatted column compartment” for “Example 26: In Vivo Assessment of the Pharmacokinetics in Mice”, “a multiplate autosampler.” for “Rats Formulations were administered intravenously (i.v.) via the tail vein or orally (p.o.) by gavage with disposable feeding needles.”

In the case of `[2H]C([2H])(c1c[nH]c2cccc(OC)c12)[C@H]1CCCN1C([2H])([2H])[2H]` [Compound I-39, (R)-4-methoxy-3-((1-(methyl-d3)pyrrolidin-2-yl)methyl-d2)-1H-indole], the half-life at 2 μM [1] is reported as 1.6 h, the microsomal CLint at 2 μM [1] is reported as 14.4 µL/min/mg and the “Remaining Percentage (%) after 60 min, Mouse” value [1] is reported as 64.91%. The “Remaining Percentage (%) after 60 min, Human” value [2] was 73.65%, the half-life at 2 μM [2] was 2.27 h and the microsomal CLint at 2 μM [2] was 10.2 µL/min/mg. The half-life at 2 μM [3] was 0.204 h, the microsomal CLint at 2 μM [3] was 113 µL/min/mg and the “Remaining Percentage (%) after 60 min, Rat” value [3] was 3.34%. For the same compound, the AUC(0-inf) ([4]; IV, 0.3 mg/kg) was 26.5 ± 3.62 ng·h/mL, the C0 ([4]; IV, 0.3 mg/kg) was 50.8 ± 4.63 ng/mL and the clearance ([4]; IV, 0.3 mg/kg) was 192 mL/min/kg. The AUC(0-t) ([4]; IV, 0.3 mg/kg) was 25.9 ± 3.49 ng·h/mL, the half-life ([4]; IV, 0.3 mg/kg) was 0.766 ± 0.0369 h and the MRT inf ([4]; IV, 0.3 mg/kg) was 0.882 ± 0.0298 h. It also gave a Vd ([4]; IV, 0.3 mg/kg) of 10.1 ± 1.01 L/kg, an AUC(0-inf) ([4]; PO, 3 mg/kg) of 36.5 ng·h/mL and a Cmax ([4]; PO, 3 mg/kg) of 14.8 ± 3.61 ng/mL. For the same compound, the Tmax ([4]; PO, 3 mg/kg) was 3.33 ± 2.31 h, the AUC(0-t) ([4]; PO, 3 mg/kg) was 1.48 ng·h/mL and the half-life ([4]; PO, 3 mg/kg) was 1.48 ± 0.813 h. It also gave a bioavailability ([4]; PO, 3 mg/kg) of 19.6 ± 10.3%, an MRT inf ([4]; PO, 3 mg/kg) of 3.18 h and an AUC0-inf/Dose ([4]; IV, 0.3 mg/kg) of 88.3 ± 12.1 kg·ng·h/mL/mg. It also gave an AUC0-inf/Dose ([4]; PO, 3 mg/kg) of 17.3 ± 9.09 kg·ng·h/mL/mg, a Cmax/Dose ([4]; PO, 3 mg/kg) of 4.92 ± 1.20 kg·ng/mL/mg and an AUC(0-inf) ([5]; IV, 1 mg/kg) of 1960 ± 696 ng·h/mL. It also gave a C0 ([5]; IV, 1 mg/kg) of 1290 ± 782 ng/mL, a clearance ([5]; IV, 1 mg/kg) of 9.25 mL/min/kg and an AUC(0-t) ([5]; IV, 1 mg/kg) of 1960 ± 696 ng·h/mL. It also gave a half-life ([5]; IV, 1 mg/kg) of 2.51 ± 0.366 h, an MRT inf ([5]; IV, 1 mg/kg) of 2.78 ± 0.388 h and a Vd ([5]; IV, 1 mg/kg) of 1.5 ± 0.397 L/kg. For the same compound, the AUC(0-inf) ([5]; PO, 10 mg/kg) was 214 ± 49.6 ng·h/mL, the Cmax ([5]; PO, 10 mg/kg) was 134 ± 14.7 ng/mL and the Tmax ([5]; PO, 10 mg/kg) was 0.5 h. It also gave an AUC(0-t) ([5]; PO, 10 mg/kg) of 210 ± 46.6 ng·h/mL, a half-life ([5]; PO, 10 mg/kg) of 3.91 ± 1.81 h and a bioavailability ([5]; PO, 10 mg/kg) of 1.09 ± 0.253%. It also gave an MRT inf ([5]; PO, 10 mg/kg) of 2.3 ± 0.259 h, an AUC0-inf/Dose ([5]; IV, 1 mg/kg) of 1960 ± 696 kg·ng·h/mL/mg and an AUC0-inf/Dose ([5]; PO, 10 mg/kg) of 21.4 ± 4.96 kg·ng·h/mL/mg. For the same compound, the Cmax/Dose ([5]; PO, 10 mg/kg) was 13.4 ± 1.47 kg·ng/mL/mg.
For `[2H]C([2H])(c1c[nH]c2cccc(O)c12)[C@H]1CCCN1C([2H])([2H])[2H]` [Compound I-44, (R)-3-((1-(methyl-d3)pyrrolidin-2-yl)methyl-d2)-1H-indol-4-ol], the half-life at 2 μM [1] was 1.18 h, the microsomal CLint at 2 μM [1] was 19.5 µL/min/mg and the “Remaining Percentage (%) after 60 min, Mouse” value [1] was 55.68%. The “Remaining Percentage (%) after 60 min, Human” value [2] was 78.13%, the half-life at 2 μM [2] was 2.81 h and the microsomal CLint at 2 μM [2] was 8.23 µL/min/mg. For the same compound, the half-life at 2 μM [3] was 0.608 h, the microsomal CLint at 2 μM [3] was 38 µL/min/mg and the “Remaining Percentage (%) after 60 min, Rat” value [3] was 32.00%. The AUC(0-inf) ([4]; IV, 0.3 mg/kg) was 27.3 ± 0.413 ng·h/mL, the C0 ([4]; IV, 0.3 mg/kg) was 70.2 ± 2.67 ng/mL and the clearance ([4]; IV, 0.3 mg/kg) was 183 mL/min/kg. For the same compound, the AUC(0-t) ([4]; IV, 0.3 mg/kg) was 26.4 ± 0.186 ng·h/mL, the half-life ([4]; IV, 0.3 mg/kg) was 0.43 ± 0.0371 h and the MRT inf ([4]; IV, 0.3 mg/kg) was 0.528 ± 0.0255 h. For the same compound, the Vd ([4]; IV, 0.3 mg/kg) was 5.8 ± 0.196 L/kg, the AUC(0-inf) ([4]; PO, 3 mg/kg) was 392 ± 109 ng·h/mL and the Cmax ([4]; PO, 3 mg/kg) was 182 ± 107 ng/mL. It also gave a Tmax ([4]; PO, 3 mg/kg) of 0.5 ± 0.433 h, an AUC(0-t) ([4]; PO, 3 mg/kg) of 384 ± 98.9 ng·h/mL and a half-life ([4]; PO, 3 mg/kg) of 3.25 ± 1.36 h. The bioavailability ([4]; PO, 3 mg/kg) was 144 ± 40.1%, the MRT inf ([4]; PO, 3 mg/kg) was 3.14 ± 1.52 h and the AUC0-inf/Dose ([4]; IV, 0.3 mg/kg) was 91.0 ± 1.38 kg·ng·h/mL/mg. For the same compound, the AUC0-inf/Dose ([4]; PO, 3 mg/kg) was 131 ± 36.5 kg·ng·h/mL/mg, the Cmax/Dose ([4]; PO, 3 mg/kg) was 60.7 ± 35.5 kg·ng/mL/mg and the AUC(0-inf) ([5]; IV, 1 mg/kg) was 598 ± 434 ng·h/mL. It also gave a C0 ([5]; IV, 1 mg/kg) of 2570 ± 2560 ng/mL, a clearance ([5]; IV, 1 mg/kg) of 42.5 mL/min/kg and an AUC(0-t) ([5]; IV, 1 mg/kg) of 595 ± 433 ng·h/mL. The half-life ([5]; IV, 1 mg/kg) was 1.18 ± 0.205 h, the MRT inf ([5]; IV, 1 mg/kg) was 0.754 ± 0.12 h and the Vd ([5]; IV, 1 mg/kg) was 1.98 ± 1.58 L/kg. For the same compound, the AUC(0-inf) ([5]; PO, 10 mg/kg) was 537 ± 274 ng·h/mL, the Cmax ([5]; PO, 10 mg/kg) was 158 ± 55.4 ng/mL and the Tmax ([5]; PO, 10 mg/kg) was 0.75 ± 0.433 h. The AUC(0-t) ([5]; PO, 10 mg/kg) was 477 ± 260 ng·h/mL, the half-life ([5]; PO, 10 mg/kg) was 2.71 ± 0.511 h and the bioavailability ([5]; PO, 10 mg/kg) was 8.98 ± 4.58%. It also gave an MRT inf ([5]; PO, 10 mg/kg) of 3.5 ± 0.965 h, an AUC0-inf/Dose ([5]; IV, 1 mg/kg) of 598 ± 434 kg·ng·h/mL/mg and an AUC0-inf/Dose ([5]; PO, 10 mg/kg) of 53.7 ± 27.4 kg·ng·h/mL/mg. It also gave a Cmax/Dose ([5]; PO, 10 mg/kg) of 15.8 ± 5.54 kg·ng/mL/mg.

Source: patent publication US11453689B2, “3-pyrrolidine-indole derivatives as serotonergic psychedelic agents for the treatment of CNS disorders” (Mindset Pharma Inc., priority 2020, dated 2022)
